# Several values for one entry are separate records, joined by “and”; a condition that tells them apart may be missing. Equal values may be shown once.
# Columns and labels:
# human platelets = assay: Thrombin-induced platelet aggregation of human platelets ex vivo; assay type: cell-based
# From the text: The method of assessing platelet aggregation also allows evaluation of the effect of the compounds of the invention on platelet aggregation upon stimulation by other agonists, e.g., adenosine diphosphate (ADP) and thrombin.
# [1] = tested on: A/Puerto Rico/8/1934 (H1N1) influenza A virus; assay type: in vivo, BALB/c mice
# [2] = tested on: MDA-MB-231-2003 breast cancer cells; assay: Experimental metastasis breast tumor xenograft model in SCID mice; assay type: in vivo; conditions: 360 μg/kg i.p. 24 hr and 4 hr before tumor cell injection
# Method: An anticancer agent including a compound represented by formula X (hereinafter “X”) was evaluated for the ability to inhibit tumor growth and experimental metastasis in a breast tumor xenograft model in immunocompromised (SCID) mice.
# MDA-MB-231-2003 breast cancer cells (1×10^6 in 0.1 ml PBS) were injected into the lateral tail vein of female SCID mice and the ability of X to inhibit metastasis to the lung was investigated (n=5 for the test X treated-mice or n=4 for the control PBS-treated mice). Mice were initially treated via intraperitoneal (i.p.) injection with either X (360 μg/kg; ˜5 μM final concentration in blood; the “test” mice) or with PBS (the “control” mice) some 24 hr. before tumor cell injection. A second injection (i.p.) was given at the same dosage of X (360 μg/kg) at 4 hr. before tumor cell injection to the test mice while the control mice received an equivalent volume of PBS before tumor cell injection. […] Thereafter, all mice were monitored by image analysis (IVIS® imaging system) every two weeks for tumor cells in their lungs and were sacrificed at day 28 post tumor cell injection.
# [3] = tested on: MDA-MB-231-D3H2LN-Luc cells; assay: Spontaneous/orthotopic breast cancer model, mammary fat pad injection; assay type: in vivo; conditions: for First Appearance of Mets, Mean ± S.E.M.: lymph node metastases; for Day of Sacrifice Mean ± S.E.M.: primary tumor reaching 15 mm
# From the text: In order to further assess the efficacy of TP20 for use as an anti-cancer, affecting primary tumor growth, and/or as an anti-metastatic agent, a spontaneous/orthotopic cancer model was employed by injection of the triple negative MDA-MB-231 breast cancer cell line (ER, PR, Her2 negative) into the mammary fat pad of immune compromised Balb-C nude mice. More specifically, in order to increase the growth rate of the primary tumor and increase the incidence of metastasis, a more aggressive variant of the MDA-MB-231 cell line, namely MDA-MB-231-D3H2LN-Luc (Jenkins et al., (2005), Breast Cancer Res, 7, 444-454), was used in the studies described below. Furthermore, the latter MDA-MB-231-D3H2LN-Luc cell line stably over-expresses the firefly luciferase gene (Luc) thereby enabling monitoring and in vivo detection of both the primary tumor and of the secondary metastasis by bioluminescent imaging in addition to assessment of the growth of the primary tumor by standard caliper measurements. In total, three groups of animals were studied and the diagram below gives an overview of the study design. FIG. 7 provides a diagram of a study design.
# Body weights of the BALB/c nude mice were recorded prior to initiating the study and, thereafter, 3 times per week (Monday, Wednesday & Friday) following the mammary fat pad injection up to the point of sacrifice or death of the animal, as per welfare guidelines. Animals were typically sacrificed once the primary tumor reached 15 mm or, as required, if animals needed to be culled for welfare reasons.
# BALB/C-nude mice (female, 5-7 weeks old) were pre-treated 24 and 4 hr with TP20 at 0.36 mg/kg (blue line; Group 1), 1 mg/kg (red line; Group 2) or as control, vehicle (1% DMSO in PBS; black line; Group 3) prior to injecting MDA-MB-231-D3H2LN-Luc cells (50 μl, 2×106 suspended in 50% DPBS/50% Matrigel) into the mammary fat pad with a 27.5 G needle. Thereafter, mice were treated with TP20 or vehicle thrice weekly (Monday, Wednesday & Friday) until the primary tumor width reached 15 mm. Body weight was monitored 3 times per week. The data presented represents the mean (FIG. 8A; ±S.E.M.) or Percentage in Body Weight (FIG. 8B; ±S.E.M.), where weight at day −1 is 100%.
# Through the duration of the study to monitor the growth of the primary (1°) tumor, for welfare and experimental reasons, caliper measurements were performed thrice weekly (i.e., Monday, Wednesday & Friday) and involved measuring the width and length of the primary tumor mass. These measurements were then used in the following formula to calculate the tumor volume (mm3): Volume of Tumor (mm3)=length×width2×0.5
# BALB/C-nude mice (female, 5-7 weeks old) were pre-treated 24 and 4 hr with TP20 at 0.36 mg/kg (blue line; Group 1), 1 mg/kg (red line; Group 2) or as control, vehicle (1% DMSO; black line; Group 3) prior to injecting MDA-MB-231-D3H2LN-Luc cells (50 μl, 2×106 suspended in 50% DPBS/50% Matrigel) into the mammary fat pad with a 27.5 G needle. Thereafter, mice were treated with TP20 or vehicle thrice weekly (Monday, Wednesday & Friday) until the primary tumor diameter reached 15 mm. Primary tumor growth was monitored thrice weekly using caliper measurements where tumor volume (mm3) is calculated by the formula Volume=Length×width2×0.5. The data presented represents the mean (±S.E.M.) tumor volume (mm3) for each of the treatment groups as a function of time (days). Fine black lines represent the linear trend for each of the treatment groups.
# As the 1° tumors reached 15 mm in diameter, for welfare reasons the animals were sacrificed. The day of sacrifice was analyzed using Kaplan-Meier survival analysis and subsequent Log-Rank and Wilcoxon tests to compare any differences between the treatments groups in terms of time of death. […]
# [4] = lung, Day 4, Tamiflu 10 mg/kg, TP20 0.36 mg/kg
# [5] = lung, Day 4, number of animals of 3
smiles,measurement,setting,value
"COc1ccc(-c2cccc(Oc3ccc([N+](=O)[O-])cc3S(=O)(=O)NC(=O)NC(C)(C)C)c2)cc1 [TP20, N-(tert-butylcarbamoyl)-2-((4′-methoxy-[1,1′-biphenyl]-3-yl)oxy)-5-nitrobenzene-sulfonamide]",effect on thrombin-induced platelet aggregation,human platelets,did not affect
same,mean time of death post-viral challenge,[1]; TP20 360 μg/kg oral gavage twice daily,7.2 days
same,loss of body weight post-viral infection,"[1]; Tamiflu 10 mg/kg, TP20 360 μg/kg, oral gavage twice daily",≤ 30%
same,"Alveolar Acute Inflammation, number of animals with the finding","[1]; lung, Day 4, 3 animals",(0)
same,"Bronchiolar Erosion, number of animals with the finding","[1]; lung, Day 4, 3 animals",(3)
same,"Bronchiolar Exudate, number of animals with the finding","[1]; lung, Day 4, 3 animals",(3)
same,"Bronchiolar acute Inflammation, number of animals with the finding","[1]; lung, Day 4, 3 animals",(3)
same,"Vascular Necrosis, number of animals with the finding","[1]; lung, Day 4, 3 animals",(0)
same,"Extent of Perivascular Edema (Mean ± S.E.M.), Per Animal",[1]; [4],16.9 ± 1.09 (70) arbitrary units and 17.4 ± 0.98 (89) arbitrary units and 19.2 ± 1.10 (78) arbitrary units
same,"Extent of Perivascular Edema (Mean ± S.E.M.), Per Treatment Group",[1]; [4],18.0 ± 0.59 arbitrary units
same,reduction in the perivascular edema compared to vehicle,[1]; [4],approx. 20%
same,"Bronchiolar Erosion, Mild",[1]; [5],3
same,"Bronchiolar Erosion, Minimal",[1]; [5],0
same,"Bronchiolar Erosion, Moderate",[1]; [5],0
same,"Bronchiolar Exudate, Mild",[1]; [5],1
same,"Bronchiolar Exudate, Minimal",[1]; [5],2
same,"Bronchiolar Exudate, Moderate",[1]; [5],0
same,"Bronchiolar acute Inflammation, Mild",[1]; [5],0
same,"Bronchiolar acute Inflammation, Minimal",[1]; [5],3
same,"Perivascular Edema, Mild",[1]; [5],0
same,"Perivascular Edema, Minimal",[1]; [5],3
same,"Perivascular Edema, number of animals with the finding","[1]; mouse, in vivo",(3)
same,lung tumor development,[2]; day 28,did not develop any tumors
same,mice surviving to the end of the experiment (day 28),[2]; n=5,5
same,effect on primary tumor growth,[3]; 0.36 mg/kg and 1 mg/kg vs. vehicle,significantly decreases the primary tumor growth
same,tolerability of repeat administration (body weight),"[3]; 0.36 mg/kg and 1 mg/kg, thrice weekly",well-tolerated
same,"First Appearance of Mets, Mean ± S.E.M.","[3]; Group 1, 0.36 mg/kg",22.5 ± 2.16 (N = 8) days
same,Day of Sacrifice Mean ± S.E.M.,"[3]; Group 1, 0.36 mg/kg",38.5 ± 2.83 (N = 8) days
same,"First Appearance of Mets, Mean ± S.E.M.","[3]; Group 2, 1 mg/kg",26.2 ± 3.71 (N = 9) days
same,Day of Sacrifice Mean ± S.E.M.,"[3]; Group 2, 1 mg/kg",38.4 ± 3.86 (N = 7) days
